Reference: patent US9708314B2, “Heterocyclic amide compound” (NISSAN CHEMICAL INDUSTRIES, LTD., priority 2013, dated 2017)

Columns and labels:
Assay type in all cases: in vivo
Scirpus juncoides = assay: Test Example 1: herbicidal activity, application before weed generation in submerged conditions; settings: Application herbicide amount 320 g/ha; Seventeenth Table
Method in brief: (§1)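 Alluvial soil in Wagner pots flooded to 4 cm water depth; weed seeds sown and 2.5 leaf stage rice seedlings transplanted. Emulsion diluted in water applied to water surface on sowing day at stated g/ha. Greenhouse 25° C. to 30° C.; effects scored 0–5 by herbicidal ratio after three weeks.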

[1] = test system: Echinochloa oryzacola Vasing.; assay: as above; settings: Application herbicide amount 320 g/ha; Seventeenth Table
Method in brief: as §1

Monochoria vaginalis = assay: as above; settings: Application herbicide amount 320 g/ha; Seventeenth Table
Method in brief: as §1

Amaranthus retroflexus = assay: Test Example 4: herbicidal effect by application to foliage (diluvial soil, plastic box); settings: application to foliage, application herbicide amount 320 g/ha
Method in brief: (§2)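 Scores run from 0 (herbicidal ratio ≤5%) to 5 (≥90%, almost fully withered) and were assessed three weeks after foliar spraying. Seedlings had been raised for 14 days at 25-30° C in sterilized diluvial soil before treatment, with the emulsion diluted in water to the stated g/ha dose.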

Stellaria media = assay: as above; settings: application to foliage, application herbicide amount 320 g/ha
Method in brief: as §2

Apera spica-venti. = assay: as above; settings: application to foliage, application herbicide amount 320 g/ha
Method in brief: as §2

[2] = test system: Echinochloa crus-galli var. crus-galli; assay: as above; settings: application to foliage, application herbicide amount 320 g/ha
Method in brief: as §2

Galium spurium = assay: as above; settings: application to foliage, application herbicide amount 320 g/ha
Method in brief: as §2

Abutilon theophrasti = assay: as above; settings: application to foliage, application herbicide amount 320 g/ha
Method in brief: as §2

Lolium multiflorum Lam. = assay: as above; settings: application to foliage, application herbicide amount 320 g/ha
Method in brief: as §2

Alopecurus myosuroides = assay: as above; settings: application to foliage, application herbicide amount 320 g/ha
Method in brief: as §2

Veronica persica = assay: as above; settings: application to foliage, application herbicide amount 320 g/ha
Method in brief: as §2

Setaria viridis = assay: as above; settings: application to foliage, application herbicide amount 320 g/ha
Method in brief: as §2

Digitaria ciliaris = assay: as above; settings: application to foliage, application herbicide amount 320 g/ha
Method in brief: as §2

Chenopodium album = assay: as above; settings: application to foliage, application herbicide amount 320 g/ha
Method in brief: as §2

Avena fatua = assay: as above; settings: application to foliage, application herbicide amount 320 g/ha
Method in brief: as §2

Zea mays = assay: Test Example 4: effect on crop by application to foliage (diluvial soil, plastic box); settings: application to foliage, application herbicide amount 320 g/ha
Method in brief: as §2

Brassica campestris L. = assay: as above; settings: application to foliage, application herbicide amount 320 g/ha
Method in brief: as §2

[3] = test system: directly sowed Oryza sativa; assay: as above; settings: application to foliage, application herbicide amount 320 g/ha
Method in brief: as §2

[4] = test system: Beta vulgaris ssp. vulgaris; assay: as above; settings: application to foliage, application herbicide amount 320 g/ha
Method in brief: as §2

Glycine max = assay: as above; settings: application to foliage, application herbicide amount 320 g/ha
Method in brief: as §2

Triticum aestivum = assay: as above; settings: application to foliage, application herbicide amount 320 g/ha
Method in brief: as §2

Row | SMILES | B: Scirpus juncoides (herbicidal effect grade) (Scirpus juncoides) | A: Echinochloa oryzicola Vasing. (herbicidal effect grade) [1] | C: Monochoria vaginalis (herbicidal effect grade) (Monochoria vaginalis) | N: herbicidal effect on Amaranthus retroflexus (Amaranthus retroflexus) | P: herbicidal effect on Stellaria media (Stellaria media) | L: herbicidal effect on Apera spica-venti. (Apera spica-venti.) | H: herbicidal effect on Echinochloa crus-galli var. crus-galli [2] | Q: herbicidal effect on Galium spurium (Galium spurium) | M: herbicidal effect on Abutilon theophrasti (Abutilon theophrasti) | K: herbicidal effect on Lolium multiflorum Lam. (Lolium multiflorum Lam.) | J: herbicidal effect on Alopecurus myosuroides (Alopecurus myosuroides) | R: herbicidal effect on Veronica persica (Veronica persica) | G: herbicidal effect on Setaria viridis (Setaria viridis) | F: herbicidal effect on Digitaria ciliaris (Digitaria ciliaris) | O: herbicidal effect on Chenopodium album (Chenopodium album) | I: herbicidal effect on Avena fatua (Avena fatua) | c: effect on crop, Zea mays (Zea mays) | g: effect on crop, Brassica campestris L. (Brassica campestris L.) | b: effect on crop, directly sowed Oryza sativa [3] | f: effect on crop, Beta vulgaris ssp. vulgaris [4] | further results
1 | COc1ccc(-c2nnc3c(C(=O)Nc4nnnn4C)ccc(C(F)(F)F)n23)cc1 [2-011] | 5 (Herbicidal ratio of 90% or more (almost completely withered)) | 5 (Herbicidal ratio of 90% or more (almost completely withered)) | 5 (Herbicidal ratio of 90% or more (almost completely withered)) | 5 (Herbicidal ratio of 90% or more (almost completely withered)) | 5 (Herbicidal ratio of 90% or more (almost completely withered)) | 3 (Herbicidal ratio of 40% or more and less than 70%) | 5 (Herbicidal ratio of 90% or more (almost completely withered)) | 3 (Herbicidal ratio of 40% or more and less than 70%) | 5 (Herbicidal ratio of 90% or more (almost completely withered)) | 2 (Herbicidal ratio of 20% or more and less than 40%) | 3 (Herbicidal ratio of 40% or more and less than 70%) | 5 (Herbicidal ratio of 90% or more (almost completely withered)) | 3 (Herbicidal ratio of 40% or more and less than 70%) | 5 (Herbicidal ratio of 90% or more (almost completely withered)) | 5 (Herbicidal ratio of 90% or more (almost completely withered)) | 3 (Herbicidal ratio of 40% or more and less than 70%) | 1 (Herbicidal ratio of 5% or more and less than 20%) | 1 (Herbicidal ratio of 5% or more and less than 20%) | 5 (Herbicidal ratio of 90% or more (almost completely withered)) | 5 (Herbicidal ratio of 90% or more (almost completely withered)) | d: effect on crop, Glycine max (Glycine max): 4 (Herbicidal ratio of 70% or more and less than 90%); e: effect on crop, Triticum aestivum (Triticum aestivum): 1 (Herbicidal ratio of 5% or more and less than 20%)
2 | Cn1nnnc1NC(=O)c1ccc(C(F)(F)F)n2c(-c3ccc(Cl)cc3)nnc12 [2-012] | 4 (Herbicidal ratio of 70% or more and less than 90%) | 5 (Herbicidal ratio of 90% or more (almost completely withered)) | 3 (Herbicidal ratio of 40% or more and less than 70%) | 5 (Herbicidal ratio of 90% or more (almost completely withered)) | 5 (Herbicidal ratio of 90% or more (almost completely withered)) | 2 (Herbicidal ratio of 20% or more and less than 40%) | 4 (Herbicidal ratio of 70% or more and less than 90%) | 4 (Herbicidal ratio of 70% or more and less than 90%) | 5 (Herbicidal ratio of 90% or more (almost completely withered)) | 2 (Herbicidal ratio of 20% or more and less than 40%) | 2 (Herbicidal ratio of 20% or more and less than 40%) | 4 (Herbicidal ratio of 70% or more and less than 90%) | 1 (Herbicidal ratio of 5% or more and less than 20%) | 4 (Herbicidal ratio of 70% or more and less than 90%) | 5 (Herbicidal ratio of 90% or more (almost completely withered)) | 3 (Herbicidal ratio of 40% or more and less than 70%) | 3 (Herbicidal ratio of 40% or more and less than 70%) | 4 (Herbicidal ratio of 70% or more and less than 90%) | 5 (Herbicidal ratio of 90% or more (almost completely withered)) | 5 (Herbicidal ratio of 90% or more (almost completely withered)) | d: effect on crop, Glycine max (Glycine max): 4 (Herbicidal ratio of 70% or more and less than 90%); e: effect on crop, Triticum aestivum (Triticum aestivum): 4 (Herbicidal ratio of 70% or more and less than 90%)
3 | CSc1nnc2c(C(=O)Nc3nnnn3C)ccc(C(F)(F)F)n12 [2-013] | 4 (Herbicidal ratio of 70% or more and less than 90%) | 5 (Herbicidal ratio of 90% or more (almost completely withered)) | 5 (Herbicidal ratio of 90% or more (almost completely withered)) | 5 (Herbicidal ratio of 90% or more (almost completely withered)) | 5 (Herbicidal ratio of 90% or more (almost completely withered)) | 4 (Herbicidal ratio of 70% or more and less than 90%) | 5 (Herbicidal ratio of 90% or more (almost completely withered)) | 4 (Herbicidal ratio of 70% or more and less than 90%) | 5 (Herbicidal ratio of 90% or more (almost completely withered)) | 3 (Herbicidal ratio of 40% or more and less than 70%) | 3 (Herbicidal ratio of 40% or more and less than 70%) | 4 (Herbicidal ratio of 70% or more and less than 90%) | 5 (Herbicidal ratio of 90% or more (almost completely withered)) | 5 (Herbicidal ratio of 90% or more (almost completely withered)) | 5 (Herbicidal ratio of 90% or more (almost completely withered)) | 4 (Herbicidal ratio of 70% or more and less than 90%) | 3 (Herbicidal ratio of 40% or more and less than 70%) | 4 (Herbicidal ratio of 70% or more and less than 90%) | 5 (Herbicidal ratio of 90% or more (almost completely withered)) | 5 (Herbicidal ratio of 90% or more (almost completely withered)) | d: effect on crop, Glycine max (Glycine max): 4 (Herbicidal ratio of 70% or more and less than 90%); e: effect on crop, Triticum aestivum (Triticum aestivum): 4 (Herbicidal ratio of 70% or more and less than 90%)
